These results are taken from ChEMBL document CHEMBL3593185, “Synthesis of new fluorinated analogs of GABA, Pregabalin bioisosteres, and their effects on [(3)H]GABA uptake by rat brain nerve terminals” (Bioorg Med Chem, 2015).

The source made the active and inactive calls. The calls are words filed in the database; no cut-off is given here.

Assay type in all cases: functional, subcellular
Assay [1] is filed under the species Rattus norvegicus. Kind of assay: Increase in [3H]GABA uptake initial velocity in Wistar rat synaptosomes measured per mg of protein at 100 uM by scintillation counting (reference value: 205.4 +/- 5 pmol/min*mg of protein).
The species entered for assay [2] is Rattus norvegicus. Kind of assay: Increase in [3H]GABA uptake initial velocity in Wistar rat synaptosomes measured per mg of protein at 200 uM by scintillation counting.
For assay [3], the species on record is Rattus norvegicus. The assay can be described thus: Increase in [3H]GABA uptake initial velocity in Wistar rat synaptosomes measured per mg of protein pretreated at 100 uM for 20 mins by scintillation counting (reference value: 153 +/- 7.7 pmol/min*mg of protein).
Assay [4] is filed under the species Rattus norvegicus. Kind of assay: Increase in [3H]GABA uptake initial velocity in Wistar rat synaptosomes measured per mg of protein pretreated at 200 uM for 20 mins by scintillation counting.
The species named for assay [5] is Rattus norvegicus. The assay can be described thus: Increase in [3H]GABA uptake initial velocity in Wistar rat synaptosomes measured per mg of protein pretreated at 100 uM for 20 mins with combined application of 30 uM NO-711 GAT1 blocker by scintillation counting.
The species entered for assay [6] is Rattus norvegicus. The assay can be described thus: Increase in [3H]GABA uptake initial velocity in Wistar rat synaptosomes measured per mg of protein pretreated at 100 uM for 20 mins with combined application of 50 uM SNAP5114 GAT3 blocker by scintillation counting.

On to `NC[C@@H](CC(=O)O)C(F)(F)F`, for which the Activity in assay [1] was determined as 211 pmol/min/mg; in assay [3], 179 pmol/min/mg; in assay [5], 23.7 pmol/min/mg; in assay [6] it was 120 pmol/min/mg. Moreover, the result in assay [2] was inactive. Besides, the result in assay [4] was Active.

`NCC(CC(=O)O)C(F)(F)C(F)F` (racemic): the Activity worked out at 198 pmol/min/mg in assay [1], 188 pmol/min/mg in assay [3], 27.4 pmol/min/mg in assay [5] and 125 pmol/min/mg in assay [6]. Moreover, the result in assay [2] was inactive. Further, the result in assay [4] was Active.

Consider `NC[C@@](O)(CC(=O)O)C(F)(F)F`, for which the Activity stood at 194 pmol/min/mg in assay [1], 189 pmol/min/mg in assay [3], 27.9 pmol/min/mg in assay [5] and 128 pmol/min/mg in assay [6]. Moreover, the outcome in assay [2] was inactive. For the same compound, the result in assay [4] was Active.

On to `CC(C)C[C@H](CN)CC(=O)O`, for which the Activity in assay [1] is 211 pmol/min/mg; in assay [3] it was 182 pmol/min/mg. Besides, the outcome in assay [5] was inactive.
